# Tests used:
# A2A adenosine receptor = target: T1, A2A adenosine receptor (Homo sapiens, UniProt P29274); assay: cAMP assay for adenosine receptor (HTRF), HEK-A2A; format: cell-based; details: HEK-A2A cells, agonist 10 nM CGS-21680, Rolipram 20 μM, read-out: A2A Functional Ki
# T1 construct: expressed in transfected cells; host or cells: HEK-293 (HEK-A2A)
# Method: (§1) cAMP Assay for Adenosine Receptor.
# (§2) The functional activity of test compounds on A2A and A2B adenosine receptors and selectivity over A1 adenosine was determined using HTRF based cAMP assay (Cisbio). Briefly, overnight seeded cultures (HEK-A1, HEK-A2A, HEK-A2B) were treated with 1U/ml ADA for 90 minutes at 37° C. and 5% CO2. Cell suspensions were treated with increasing concentrations of test compounds for 15 minutes followed by treatment with agonists for 15 minutes (1 nM CPA for HEK-A1 and 70 nM NECA for HEK-A2B) or 30 min (10 nM CGS-21680 for HEK-A2A) at room temperature with continuous mixing in incomplete DMEM supplemented with 1U/ml ADA. Rolipram (20 μM) was included in the assay for A1 and A2A adenosine receptors. For functional activity of HEK-A1, cell suspensions were further treated with forskolin for 30 minutes at room temperature with constant mixing. cAMP levels were quantified using a Flex Station III (Molecular Devices) at an excitation maximum of 313 nm and emission maxima of 620 nm and 665 nm. Data was analyzed using GraphPad Prism to generate IC50 and Ki. The biological activity data is provided in the Table below. <10 nM are represented as ++++, 10-30 nM as +++, 30-100 nM ++ and the K, value >100 nM as +.
# A2B adenosine receptor = target: T2, A2B adenosine receptor (Homo sapiens, UniProt P29275); assay: cAMP assay for adenosine receptor (HTRF), HEK-A2B; format: cell-based; details: HEK-A2B cells, agonist 70 nM NECA, read-out: A2B Functional Ki
# T2 construct: expressed in transfected cells; host or cells: HEK-293 (HEK-A2B)
# T2 sequence (P29275 1-332): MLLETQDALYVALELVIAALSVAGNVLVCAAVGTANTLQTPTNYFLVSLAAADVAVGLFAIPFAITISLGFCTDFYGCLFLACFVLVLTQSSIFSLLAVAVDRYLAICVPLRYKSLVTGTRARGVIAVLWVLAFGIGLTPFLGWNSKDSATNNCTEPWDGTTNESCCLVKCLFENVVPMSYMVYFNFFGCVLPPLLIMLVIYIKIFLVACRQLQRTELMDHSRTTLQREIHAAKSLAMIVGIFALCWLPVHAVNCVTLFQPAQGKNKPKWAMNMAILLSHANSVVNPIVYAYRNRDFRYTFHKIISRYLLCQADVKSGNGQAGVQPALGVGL
# Method: as §1, §2
# T1 sequence (P29274 whole entry): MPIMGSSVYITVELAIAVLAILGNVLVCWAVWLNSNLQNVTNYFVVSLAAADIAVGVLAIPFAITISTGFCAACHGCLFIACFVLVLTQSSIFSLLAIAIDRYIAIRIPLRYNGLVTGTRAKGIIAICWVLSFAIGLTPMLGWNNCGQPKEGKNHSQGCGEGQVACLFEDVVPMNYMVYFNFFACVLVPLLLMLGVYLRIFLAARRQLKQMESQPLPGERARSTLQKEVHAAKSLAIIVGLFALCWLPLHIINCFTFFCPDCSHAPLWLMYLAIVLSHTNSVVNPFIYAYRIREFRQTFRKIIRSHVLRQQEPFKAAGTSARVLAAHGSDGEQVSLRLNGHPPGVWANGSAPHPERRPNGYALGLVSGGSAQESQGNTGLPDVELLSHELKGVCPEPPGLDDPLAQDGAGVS
Structure (SMILES),Ki (A2A adenosine receptor),Ki (A2B adenosine receptor)
"CCCn1c(=O)c2[nH]c(-c3cnn(Cc4cccc(C(F)(F)F)c4)c3)nc2n2ccnc12 [Example A1, 5-propyl-2-[1-[[3-(trifluoromethyl)phenyl]methyl]pyrazol-4-yl]-3H-imidazo[2,1-b]purin-4-one]",< 10 nM,< 10 nM
"Cn1c(=O)c2[nH]c(-c3cnn(Cc4cccc(C(F)(F)F)c4)c3)nc2n2ccnc12 [Example A3, 5-methyl-2-[1-[[3-(trifluoromethyl)phenyl]methyl]pyrazol-4-yl]-3H-imidazo[2,1-b]purin-4-one]",10 to 30 nM,< 10 nM
"CCCn1c(=O)c2[nH]c(-c3cnn(CCc4cccc(F)c4)c3)nc2n2ccnc12 [Example A5, 2-[1-[2-(3-fluorophenyl)ethyl]pyrazol-4-yl]-5-propyl-3H-imidazo[2,1-b]purin-4-one]",30 to 100 nM,–
"CCCn1c(=O)c2[nH]c(-c3cnn(C)c3)nc2n2ccnc12 [Example A6, 2-(1-methylpyrazol-4-yl)-5-propyl-3H-imidazo[2,1-b]purin-4-one]",> 100 nM,–
"CCCn1c(=O)c2[nH]c(-c3cnn(C(C)(C)CC)c3)nc2n2ccnc12 [Example A7, 2-[1-(1,1-dimethylpropyl)pyrazol-4-yl]-5-propyl-3H-imidazo[2,1-b]purin-4-one]",< 10 nM,< 10 nM
"CCCn1c(=O)c2[nH]c(-c3cnn(CC#Cc4cccc(C(=O)OCC)c4)c3)nc2n2ccnc12 [Example B2, Ethyl 3-[3-[4-(4-oxo-5-propyl-3H-imidazo[2,1-b]purin-2-yl)pyrazol-1-yl]prop-1-ynyl]benzoate]",10 to 30 nM,< 10 nM
"CCCn1c(=O)c2[nH]c(-c3cnn(CC#Cc4cccc(OC(F)(F)F)c4)c3)nc2n2ccnc12 [Example B3, 5-propyl-2-[1-[3-[3-(trifluoromethoxy)phenyl]prop-2-ynyl]pyrazol-4-yl]-3H-imidazo[2,1-b]purin-4-one]",10 to 30 nM,< 10 nM
"CCCn1c(=O)c2[nH]c(-c3cnn(CC#Cc4cc(C(=O)OCC)ccc4C)c3)nc2n2ccnc12 [Example B6, Ethyl 4-methyl-3-[3-[4-(4-oxo-5-propyl-3H-imidazo[2,1-b]purin-2-yl)pyrazol-1-yl]prop-1-ynyl]benzoate]",30 to 100 nM,< 10 nM
"CCCn1c(=O)c2[nH]c(-c3cnn(Cc4cccc(C#N)c4)c3)nc2n2ccnc12 [Example B7, 3-[[4-(4-oxo-5-propyl-3H-imidazo[2,1-b]purin-2-yl)pyrazol-1-yl]methyl]benzonitrile]",< 10 nM,< 10 nM
"CCCn1c(=O)c2[nH]c(-c3cnn(C(C)C)c3)nc2n2ccnc12 [Example B8, 2-(1-isopropylpyrazol-4-yl)-5-propyl-3H-imidazo[2,1-b]purin-4-one]",10 to 30 nM,< 10 nM
"CCCCn1cc(-c2nc3c([nH]2)c(=O)n(CCC)c2nccn32)cn1 [Example B9, 2-(1-butylpyrazol-4-yl)-5-propyl-3H-imidazo[2,1-b]purin-4-one]",10 to 30 nM,< 10 nM
"CCCn1c(=O)c2[nH]c(-c3cnn(CC)c3)nc2n2ccnc12 [Example B10, 2-(1-ethylpyrazol-4-yl)-5-propyl-3H-imidazo[2,1-b]purin-4-one]",10 to 30 nM,< 10 nM
"CCCn1c(=O)c2[nH]c(-c3cnn(CCOC)c3)nc2n2ccnc12 [Example B11, 2-[1-(2-methoxyethyl)pyrazol-4-yl]-5-propyl-3H-imidazo[2,1-b]purin-4-one]",> 100 nM,10 to 30 nM
"CCCn1c(=O)c2[nH]c(-c3cnn(CCN(C)C)c3)nc2n2ccnc12 [Example B12, 2-[1-(2-dimethylaminoethyl)pyrazol-4-yl]-5-propyl-3H-imidazo[2,1-b]purin-4-one]",> 100 nM,10 to 30 nM
"CCCn1cc(-c2nc3c([nH]2)c(=O)n(CCC)c2nccn32)cn1 [Example B13, 5-propyl-2-(1-propylpyrazol-4-yl)-3H-imidazo[2,1-b]purin-4-one]",< 10 nM,< 10 nM
"CCCn1c(=O)c2[nH]c(-c3cnn(CC(=O)N(C)C)c3)nc2n2ccnc12 [Example B14, N,N-dimethyl-2-[4-(4-oxo-5-propyl-3H-imidazo[2,1-b]purin-2-yl)pyrazol-1-yl]acetamide]",> 100 nM,< 10 nM
"CCCn1c(=O)c2[nH]c(-c3cnn(CC4CCC4)c3)nc2n2ccnc12 [Example B16, 2-[1-(cyclobutylmethyl)pyrazol-4-yl]-5-propyl-3H-imidazo[2,1-b]purin-4-one]",< 10 nM,< 10 nM
"CCCn1c(=O)c2[nH]c(-c3cnn(CC(C)C)c3)nc2n2ccnc12 [Example B17, 2-(1-isobutylpyrazol-4-yl)-5-propyl-3H-imidazo[2,1-b]purin-4-one]",10 to 30 nM,< 10 nM
"CCCn1c(=O)c2[nH]c(-c3cnn(CC(C)(C)C)c3)nc2n2ccnc12 [Example B19, 2-[1-(2,2-dimethylpropyl)pyrazol-4-yl]-5-propyl-3H-imidazo[2,1-b]purin-4-one]",< 10 nM,< 10 nM
"CCCn1c(=O)c2[nH]c(-c3cnn(C(C)CC)c3)nc2n2ccnc12 (stereo not shown) [Example B20, 5-propyl-2-(1-sec-butylpyrazol-4-yl)-3H-imidazo[2,1-b]purin-4-one]",< 10 nM,< 10 nM

# The next lines start with the values.
Ki (A2A adenosine receptor),Ki (A2B adenosine receptor),Structure (SMILES)
30 to 100 nM,< 10 nM,"CCCn1c(=O)c2[nH]c(-c3cnn(CC4CC(=O)N(c5cncc(C(F)(F)F)c5)C4)c3)nc2n2ccnc12 (stereo not shown) [Example C2, 2-[1-[[5-oxo-1-[5-(trifluoromethyl)-3-pyridyl]pyrrolidin-3-yl]methyl]pyrazol-4-yl]-5-propyl-3H-imidazo[2,1-b]purin-4-one]"
30 to 100 nM,< 10 nM,"CCCn1c(=O)c2[nH]c(-c3cnn(CCN4CCCCC4)c3)nc2n2ccnc12 [Example D1, 2-[1-[2-(1-piperidyl)ethyl]pyrazol-4-yl]-5-propyl-3H-imidazo[2,1-b]purin-4-one]"
< 10 nM,< 10 nM,"CCCn1c(=O)c2[nH]c(-c3cnn(Cc4cccc(CO)c4)c3)nc2n2ccnc12 [Example E1, 2-[1-[[3-(hydroxymethyl)phenyl]methyl]pyrazol-4-yl]-5-propyl-3H-imidazo[2,1-b]purin-4-one]"
10 to 30 nM,< 10 nM,"CCCn1c(=O)c2[nH]c(-c3cnn(Cc4cccc(C(C)(C)O)c4)c3)nc2n2ccnc12 [Example F1, 2-[1-[[3-(1-hydroxy-1-methyl-ethyl)phenyl]methyl]pyrazol-4-yl]-5-propyl-3H-imidazo[2,1-b]purin-4-one]"
10 to 30 nM,< 10 nM,"CCCn1c(=O)c2[nH]c(-c3cnn(Cc4cccc(C(=O)O)c4)c3)nc2n2ccnc12 [Example G1, 3-[[4-(4-oxo-5-propyl-3H-imidazo[2,1-b]purin-2-yl)pyrazol-1-yl]methyl]benzoic Acid]"
> 100 nM,30 to 100 nM,"CCCn1c(=O)c2[nH]c(-c3cnn(CC(=O)O)c3)nc2n2ccnc12 [Example H1, 2-[4-(4-oxo-5-propyl-3H-imidazo[2,1-b]purin-2-yl)pyrazol-1-yl]acetic acid]"
30 to 100 nM,30 to 100 nM,"CCCn1c(=O)c2[nH]c(-c3cnn(CC(O)CO)c3)nc2n2ccnc12 (stereo not shown) [Example J1, 2-[1-(2,3-dihydroxypropyl)pyrazol-4-yl]-5-propyl-3H-imidazo[2,1-b]purin-4-one]"

# Source: patent US11981679B2, “Tricyclic compounds, compositions and medicinal applications thereof” (IMPETIS BIOSCIENCES LTD., priority 2018, dated 2024)
